Legend:
[1] = test system: locomotor activity; experiment: Locomotor activity after acute dosing; assay type: in vivo, Sprague Dawley rats; conditions: 4 h; nepicastat 3-100 mg/kg, SKF-102698 100 mg/kg, clonidine 40 μg/kg
Text: Changes in these behaviors may therefore reflect activity of these compounds in the central nervous system. […] Rats were housed under a normal light/dark cycle with lights on between 0900 Hrs. and 2100 Hrs. Animals were housed in pairs in standard metal wire cages, and food and water were allowed ad libitum. The locomotor activity boxes consisted of a Plexiglas® box measuring 18″×18″ by 12″ high. Surrounding the Plexiglas® boxes were Omnitech Digiscan Monitors (model # RXXCM 16) which consisted of a one inch ban of photobeams and photosensors numbering 32 per box. The number of photobeam breaks were analyzed by an Omnitech Digiscan Analyzer (model # DCM-8). […] Prior to drug administration, each of seventy-two rats was placed in the startle apparatus, and after a 5 minute adaption period they were presented with an acoustic noise burst every 20 seconds for 15 minutes (45 startles total). The average startle was calculated for each rat by taking the mean of startle number 11 through 45 (the first ten startles will be disregarded). Sixty-four of these rats were then placed in one of eight treatment groups such that each group had similar mean startle values. The eight treatment groups were as follows: […] Each day after this testing procedure, eight rats (one rat from each of the eight treatment groups) was injected with their assigned drug treatment and immediately placed individually in a motor activity box. The rats motor activity was monitored for four hours. Next, the rats were placed in a transfer cage for fifteen minutes. At the beginning of this fifteen minutes the rat that has been assigned the clonidine treatment will receive another injection of 40 μg/kg. […] To evaluate motor activity, horizontal activity (number of photobeams broken), number of movements, and rest time were measured. Each parameter was analyzed separately. At each time interval (or called sample), a two-way analysis of variance (ANOVA) was performed using the ranked data (nonparametric technique) to test for the treatment effect blocked by day.

[2] = test system: pre-pulse inhibition; experiment: Pre-pulse inhibition of acoustic startle on day ten of chronic dosing
Method: (§1) The effects of chronic dosing of nepicastat were examined. Between three and thirteen days prior to the first dosing day the rats were placed inside the startle apparatus and after a five minute acclimation period they were presented with a 118 dB noise burst on average once a minute (a variable inter-trial interval ranging between 30 and 90 seconds will be used) for 20 minutes. The startle responses were measured and a mean for the last twenty startle response was calculated for each rat.
(§2) Acoustic startle reactivity (a series of muscle contractions elicited by an intense burst of noise with a rapid onset), and pre-pulse inhibition (sensorimotor gating measured by analyzing any decrease in startle reactivity which occurs when a startling stimulus is immediately preceded by a non startling stimulus) were both measured in eight SR-Lab (San Diego Instruments, San Diego, Calif.) test stations. The rats were placed individually in a Plexiglas cylinder (10 cm diameter) which was housed in a ventilated sound-attenuating enclosure. Acoustic noise bursts (a broad band noise with a rise time and fall time of 1 msec) were presented via a speaker mounted 30 cm above the animal. Also, these speakers produced a 68 dB level of background noise throughout all test sessions. […] A decibel meter was used to calibrate the speakers in each of the eight test station to ±1% of the mean. Additionally, a SR-Lab calibrating instrument was used to calibrate each of the eight startle detection apparatuses to ±2% of the mean. Startle reactivity and pre-pulse inhibition tests were run concurrently immediately alter the motor activity test (about 4 hours and 40 minutes after the morning daily injection of nepicastat, and SKF-102698, and 10 minutes after a supplemental administration of clonidine and d-amphetamine on dosing day ten).

[3] = test system: acoustic startle reactivity; experiment: Acoustic startle reactivity on day ten of chronic dosing; conditions: rat, in vivo, po
Method: as §1, §2

[4] = test system: acoustic startle reactivity; experiment: Acoustic startle reactivity after acute dosing; assay type: in vivo, Sprague Dawley rats; conditions: nepicastat 3-100 mg/kg, SKF-102698 100 mg/kg, clonidine 40 μg/kg
Method: A piezoelectric accelerometer transforms the subject's movement into an arbitrary voltage on a scale of 0 to 4095. Prior to drug administration, each of seventy-two rats was placed in the startle apparatus, and after a 5 minute adaption period they were presented with an acoustic noise burst every 20 seconds for 15 minutes (45 startles total). The average startle was calculated for each rat by taking the mean of startle number 11 through 45 (the first ten startles will be disregarded). Sixty-four of these rats were then placed in one of eight treatment groups such that each group had similar mean startle values. The eight treatment groups were as follows: […] Each day after this testing procedure, eight rats (one rat from each of the eight treatment groups) was injected with their assigned drug treatment and immediately placed individually in a motor activity box. The rats motor activity was monitored for four hours. Next, the rats were placed in a transfer cage for fifteen minutes. […] To evaluate startle reactivity, for the 200 milliseconds immediately succeeding each startle the average force exerted by each startled rat over the entire 200 milliseconds, and the maximum force, were measured. […] The startle responses were analyzed using analysis of covariance. […] Therefore, the startle responses were analyzed by time. […]

[5] = test system: spontaneous motor activity; experiment: Spontaneous motor activity on day ten of chronic dosing; conditions: day ten of b.i.d. oral dosing, 1 hour
Method: as §1
The animals were tested in an enclosed room with a white noise generator running. Motor activity tests were conducted immediately after the body core temperature reading taken on dosing day ten (about 3 hours and 35 minutes after the morning daily dose of nepicastat, and SKF-102698, and 20 minutes prior to the daily administration of clonidine and d-amphetamine on dosing day ten). Motor activity tests were run for one hour. A diagnostic program was run on each of the motor activity chambers prior to each test session to assure that the photo beams and light sensors were operating properly. […] D-amphetamine was used as the positive control for this assay.
Each rats spontaneous locomotion was obtained by calculating the total number of photobeams that the subject broke during the testing session.
Spontaneous motor activity was measured for each animal every 15 min for 1 hour. Each time block (every 15 min) was analyzed separately. Kruskal-Wallis test (nonparametric technique) was performed to test for the difference between treatment groups. If the overall significant difference […], Bonferroni's adjustment for multiple comparisons is then made.

[6] = Change of body weight during 10 day chronic dosing; conditions: 10 days b.i.d. oral dosing
Method: as §1
The change from pre-dose in body weights was calculated for each animal for the analysis. A repeated measures two-way ANOVA was used to test for the overall effects of treatment, time and treatment by time interaction. One-way ANOVAS were then performed to test the treatment effect at each day.

[7] = test system: body core temperature; experiment: Body core temperature during 10 day chronic dosing; conditions: b.i.d. oral: nepicastat 5, 15, 50 mg/kg; SKF-102698 50 mg/kg; clonidine 20 ug/kg; d-amphetamine 2 mg/kg; days 1, 5, 10
Method: as §1
Rat body core temperatures were obtained by inserting the rectal probe 2 cm into the colon of each rat. Each rat's body core temperature was measured three times and the average of the three reading was calculated. Body core temperature readings were obtained immediately prior to the ten day chronic dosing schedule (to obtain a baseline), and three and half hour after the morning daily dose of nepicastat, and SKF-102698, and 15 minutes prior to the daily administration of clonidine and d-amphetamine, on dosing days one, five and ten. […] Both clonidine (an alpha2 agonist), and d-amphetamine (a dopamine releaser) were used as the positive controls for this assay.
An overall one-way ANOVA with a main effect for treatment was performed at each time on the change from baseline for each animal. Subsequent t-tests were performed for each comparison of interest.

Clc1cccc(Cl)c1N=C1NCCN1 [clonidine]
horizontal activity vs vehicle [1]: significantly more horizontal activities at 2 and 2.5 hours | number of movements vs vehicle [1]: significantly more movements at 2 hours | rest time vs vehicle [1]: significantly less rest time at 2 hours | percent prepulse inhibition vs vehicle ([2]; rat, in vivo, po): just significantly higher percent prepulse inhibition | acoustic startle reactivity vs vehicle [3]: significantly reduced | maximum and average startle response vs vehicle [4]: statistically significantly lower

C[C@H](N)Cc1ccccc1 [d-amphetamine]
percent prepulse inhibition vs vehicle ([2]; day ten of b.i.d. oral dosing): Neither d-amphetamine nor SKF 102698 was significantly different | spontaneous motor (locomotor) activity vs vehicle [5]: significantly higher locomotor activity | change in body weight from pre-dose vs vehicle [6]: significantly smaller change in body weight | body core temperature [7]: significantly increasing body core temperature on day one

Reference: patent US20090054403A1, “Treatment of Post-Traumatic Stress Disorder” (priority 2007, published 2009)
